Assay results as given in the NIST ThermoML archive (doi:10.1016/j.fluid.2007.07.016).

Test: xn = mol fraction of the nth substance listed
Conditions: 101 kPa, Liquid; for viscosity: Capillary tube (Ostwald / Ubbelohde) method; for speed of sound: Linear variable-path acoustic interferometer

Cc1cccc(C)c1 [1,3-dimethylbenzene] + C1CCOC1
Conditions	speed of sound, 288.15 K [m/s]	speed of sound, 298.15 K [m/s]	speed of sound, 308.15 K [m/s]	speed of sound, 318.15 K [m/s]	viscosity, 288.15 K [mPa·s]	viscosity, 298.15 K [mPa·s]	viscosity, 308.15 K [mPa·s]	viscosity, 318.15 K [mPa·s]
x2 = 0	1373.2	1326.6	1281	1243	0.6696	0.588	0.5229	0.4684
x2 = 0.0722	1370.9	1324	1278.1	1239.4	0.6615	0.5823	0.5193	0.4668
x2 = 0.1486	1368.1	1321	1274.8	1235.5	0.6528	0.5762	0.5151	0.4647
x2 = 0.2134	1365.6	1318.4	1272.1	1232.2	0.6449	0.5703	0.511	0.4621
x2 = 0.2804	1362.9	1315.6	1269.2	1228.7	0.6363	0.5638	0.5061	0.4587
x2 = 0.3536	1359.7	1312.5	1265.9	1224.9	0.6263	0.556	0.4999	0.4542
x2 = 0.4255	1356.4	1309.3	1262.6	1221.1	0.616	0.5477	0.4932	0.4489
x2 = 0.4864	1353.5	1306.4	1259.7	1217.8	0.6068	0.5401	0.4869	0.4438
x2 = 0.5476	1350.5	1303.4	1256.6	1214.4	0.5971	0.5321	0.48	0.4382
x2 = 0.6041	1347.5	1300.5	1253.7	1211.1	0.5879	0.5243	0.4732	0.4323
x2 = 0.6751	1343.6	1296.7	1249.9	1206.9	0.5757	0.5139	0.464	0.4241
x2 = 0.7396	1339.8	1293.1	1246.4	1203.1	0.5642	0.5038	0.455	0.4162
x2 = 0.8005	1336.1	1289.6	1243	1199.5	0.5529	0.4939	0.446	0.408
x2 = 0.8722	1331.6	1285.4	1238.9	1195.1	0.5392	0.4817	0.4347	0.3974
x2 = 0.9378	1327.3	1281.4	1235.2	1191.1	0.5261	0.4699	0.4237	0.387
